Calls of active or inactive are those of the source. The rule behind the calls is not given here.
Tests used:
[1] = target: T1, Protein cereblon/Eukaryotic peptide chain release factor GTP-binding subunit ERF3A (Homo sapiens, UniProt Q96SW2+P15170); experiment: Molecular glue activity at CRBN/HiBiT-tagged GSPT1 in wild type human BE2C cells assessed as induction of GSPT1 degradation measured after 3 hrs by immunoblot analysis; assay type: cell-based
Target sequence in this assay (Q96SW2 whole entry): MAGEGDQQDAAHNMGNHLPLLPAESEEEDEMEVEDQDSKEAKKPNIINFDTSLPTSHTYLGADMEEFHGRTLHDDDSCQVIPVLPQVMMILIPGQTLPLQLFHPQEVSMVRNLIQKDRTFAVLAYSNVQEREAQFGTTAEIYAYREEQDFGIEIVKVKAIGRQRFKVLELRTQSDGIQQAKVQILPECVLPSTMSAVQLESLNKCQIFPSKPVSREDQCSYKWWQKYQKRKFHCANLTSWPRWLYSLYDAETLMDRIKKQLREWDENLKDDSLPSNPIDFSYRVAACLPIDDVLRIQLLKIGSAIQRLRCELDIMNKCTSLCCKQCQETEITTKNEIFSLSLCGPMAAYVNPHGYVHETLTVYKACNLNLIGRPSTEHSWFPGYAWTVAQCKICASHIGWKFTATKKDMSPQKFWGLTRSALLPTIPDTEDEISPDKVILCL
Target sequence in this assay (P15170 whole entry): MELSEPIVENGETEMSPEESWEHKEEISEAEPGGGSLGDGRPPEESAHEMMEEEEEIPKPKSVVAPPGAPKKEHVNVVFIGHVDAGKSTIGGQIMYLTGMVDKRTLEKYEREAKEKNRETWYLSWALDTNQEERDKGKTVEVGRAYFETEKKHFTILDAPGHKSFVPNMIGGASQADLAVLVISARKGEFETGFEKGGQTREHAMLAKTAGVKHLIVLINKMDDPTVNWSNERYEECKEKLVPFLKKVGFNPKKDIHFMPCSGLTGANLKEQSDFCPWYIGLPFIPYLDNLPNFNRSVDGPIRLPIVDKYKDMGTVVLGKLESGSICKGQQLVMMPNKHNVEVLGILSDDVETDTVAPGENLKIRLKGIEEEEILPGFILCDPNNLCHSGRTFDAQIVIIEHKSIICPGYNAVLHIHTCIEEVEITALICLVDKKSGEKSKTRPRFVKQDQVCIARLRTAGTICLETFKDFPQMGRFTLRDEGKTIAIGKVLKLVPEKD

BE(2)-C [2] = experiment: Antiproliferative activity against wild type human BE2C cells assessed as reduction in cell viability measured after 3 days by ATP-dependent luminescence assay; assay type: functional, cell-based; settings: 72 h
MOLT-4 [3] = experiment: Antiproliferative activity against wild type human MOLT-4 cells assessed as reduction in cell viability measured after 3 days by ATP-dependent luminescence assay; assay type: functional, cell-based; settings: MOLT-4, 72 h
[4] = target: T1, Protein cereblon/Eukaryotic peptide chain release factor GTP-binding subunit ERF3A; experiment: Molecular glue activity at CRBN/HiBiT-tagged GSPT1 in wild type human MV4-11 cells assessed as induction of GSPT1 degradation measured after 3 hrs by immunoblot analysis; assay type: cell-based
Target sequence in this assay (Q96SW2 whole entry): as the sequence (Q96SW2 whole entry) above
Target sequence in this assay (P15170 whole entry): as the sequence (P15170 whole entry) above

[5] = target: T1, Protein cereblon/Eukaryotic peptide chain release factor GTP-binding subunit ERF3A; experiment: Molecular glue activity at CRBN/HiBiT-tagged GSPT1 in human MOLT-4 cells assessed as induction of GSPT1 degradation measured after 3 hrs by immunoblot analysis; assay type: cell-based
Target sequence in this assay (Q96SW2 whole entry): as the sequence (Q96SW2 whole entry) above
Target sequence in this assay (P15170 whole entry): as the sequence (P15170 whole entry) above

MV4-11 [6] = experiment: Antiproliferative activity against wild type human MV4-11 cells assessed as reduction in cell viability measured after 3 days by ATP-dependent luminescence assay; assay type: functional, cell-based; settings: MV4-11, 72 h
[7] = target: T1, Protein cereblon/Eukaryotic peptide chain release factor GTP-binding subunit ERF3A; experiment: Molecular glue activity at CRBN/GSPT1 in CRBN depleted human BE2C cells assessed as induction of GSPT1 degradation at 3 uM measured after 3 hrs by immunoblot analysis; assay type: cell-based
Target sequence in this assay (P15170 whole entry, looked up): as the sequence (P15170 whole entry) above
Target sequence in this assay (Q96SW2 whole entry, looked up): as the sequence (Q96SW2 whole entry) above

[8] = target: T1, Protein cereblon/Eukaryotic peptide chain release factor GTP-binding subunit ERF3A; experiment: Molecular glue activity at CRBN/HiBiT-tagged GSPT1 in human BE2C cells assessed as induction of GSPT1 degradation at 3 uM pretreated with MLN4924 at 1 uM for 1 hr followed by compound treatment and measured after 3 hrs by immunoblot analysis; assay type: cell-based
Target sequence in this assay (P15170 whole entry, looked up): as the sequence (P15170 whole entry) above
Target sequence in this assay (Q96SW2 whole entry, looked up): as the sequence (Q96SW2 whole entry) above

[9] = target: T1, Protein cereblon/Eukaryotic peptide chain release factor GTP-binding subunit ERF3A; experiment: Molecular glue activity at CRBN/HiBiT-tagged GSPT1 in human MV4-11 cells assessed as induction of GSPT1 degradation at 3 uM pretreated with carfilzomib at 500 nM for 1 hr followed by compound treatment and measured after 3 hrs by immunoblot analysis; assay type: cell-based
Target sequence in this assay (P15170 whole entry, looked up): as the sequence (P15170 whole entry) above
Target sequence in this assay (Q96SW2 whole entry, looked up): as the sequence (Q96SW2 whole entry) above

[10] = target: DNA-binding protein Ikaros (Homo sapiens) (UniProt Q13422); experiment: Induction of IKZF1 degradation in human MV4-11 cells at 3 uM measured after 3 hrs by proteomics analysis; assay type: cell-based
Sequence of DNA-binding protein Ikaros (Homo sapiens) (Q13422 whole entry): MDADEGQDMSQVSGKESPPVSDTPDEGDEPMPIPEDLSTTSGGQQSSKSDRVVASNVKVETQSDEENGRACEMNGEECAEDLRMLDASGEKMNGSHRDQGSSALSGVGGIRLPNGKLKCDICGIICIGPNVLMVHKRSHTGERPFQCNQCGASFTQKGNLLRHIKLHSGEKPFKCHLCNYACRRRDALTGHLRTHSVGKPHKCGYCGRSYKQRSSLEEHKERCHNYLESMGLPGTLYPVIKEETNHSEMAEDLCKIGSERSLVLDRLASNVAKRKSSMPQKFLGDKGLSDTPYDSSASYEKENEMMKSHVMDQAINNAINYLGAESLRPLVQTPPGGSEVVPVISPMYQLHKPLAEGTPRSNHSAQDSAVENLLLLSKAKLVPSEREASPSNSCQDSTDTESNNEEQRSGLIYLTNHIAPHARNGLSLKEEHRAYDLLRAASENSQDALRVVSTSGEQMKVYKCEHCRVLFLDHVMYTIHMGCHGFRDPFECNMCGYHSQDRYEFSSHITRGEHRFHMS

[11] = target: DNA-binding protein Ikaros (Homo sapiens) (UniProt Q13422); experiment: Induction of cHiBiT-tagged IKZF1 degradation in human MV4-11 cells; assay type: cell-based
MV4-11 [12] = experiment: Antiproliferative activity against human MV4-11 cells harboring GSPT1 G575N mutant assessed as reduction in cell viability measured after 3 days by ATP-dependent luminescence assay; assay type: functional, cell-based; settings: time 3.0 day
[13] = target: T1, Protein cereblon/Eukaryotic peptide chain release factor GTP-binding subunit ERF3A; experiment: Molecular glue activity at CRBN/GSPT1 in human MOLT-4 cells harboring GSPT1 G575N mutant assessed as induction of GSPT1 degradation at 3 uM measured after 3 hrs by immunoblot analysis; assay type: cell-based
Target sequence in this assay (P15170 whole entry, looked up): as the sequence (P15170 whole entry) above
Target sequence in this assay (Q96SW2 whole entry, looked up): as the sequence (Q96SW2 whole entry) above

[14] = target: T1, Protein cereblon/Eukaryotic peptide chain release factor GTP-binding subunit ERF3A; experiment: Molecular glue activity at CRBN/HiBiT-tagged GSPT1 in human MV4-11 cells assessed as induction of GSPT1 degradation at 3 uM pretreated with MLN4924 at 1 uM for 1 hr followed by compound treatment and measured after 3 hrs by immunoblot analysis; assay type: cell-based
Target sequence in this assay (P15170 whole entry, looked up): as the sequence (P15170 whole entry) above
Target sequence in this assay (Q96SW2 whole entry, looked up): as the sequence (Q96SW2 whole entry) above

BE(2)-C [15] = experiment: Antiproliferative activity against CRBN depleted human BE2C cells assessed as reduction in cell viability measured after 3 days by ATP-dependent luminescence assay; assay type: functional, cell-based; settings: time 3.0 day
[16] = target: DNA-binding protein Ikaros (Homo sapiens) (UniProt Q13422); experiment: Induction of IKZF1 degradation in human MV4-11 cells at 3 uM measured after 3 hrs by immunoblot analysis; assay type: cell-based
[17] = target: T1, Protein cereblon/Eukaryotic peptide chain release factor GTP-binding subunit ERF3A; experiment: Molecular glue activity at CRBN/HiBiT-tagged GSPT1 in human MOLT-4 cells assessed as induction of GSPT1 degradation at 3 uM pretreated with pomalidomide at 25 uM for 1 hr followed by compound treatment and measured after 3 hrs by immunoblot analysis; assay type: cell-based
Target sequence in this assay (P15170 whole entry, looked up): as the sequence (P15170 whole entry) above
Target sequence in this assay (Q96SW2 whole entry, looked up): as the sequence (Q96SW2 whole entry) above

[18] = target: T1, Protein cereblon/Eukaryotic peptide chain release factor GTP-binding subunit ERF3A; experiment: Molecular glue activity at CRBN/GSPT1 in human BE2C cells harboring GSPT1 G575N mutant assessed as induction of GSPT1 degradation at 3 uM measured after 3 hrs by immunoblot analysis; assay type: cell-based
[19] = target: T1, Protein cereblon/Eukaryotic peptide chain release factor GTP-binding subunit ERF3A; experiment: Molecular glue activity at CRBN/HiBiT-tagged GSPT1 in human MV4-11 cells assessed as induction of GSPT1 degradation at 3 uM pretreated with pomalidomide at 25 uM for 1 hr followed by compound treatment and measured after 3 hrs by immunoblot analysis; assay type: cell-based
[20] = target: T1, Protein cereblon/Eukaryotic peptide chain release factor GTP-binding subunit ERF3A; experiment: Molecular glue activity at CRBN/HiBiT-tagged GSPT1 in human MOLT-4 cells assessed as induction of GSPT1 degradation at 3 uM pretreated with MLN4924 at 1 uM for 1 hr followed by compound treatment and measured after 3 hrs by immunoblot analysis; assay type: cell-based
[21] = target: T1, Protein cereblon/Eukaryotic peptide chain release factor GTP-binding subunit ERF3A; experiment: Molecular glue activity at CRBN/GSPT1 in human MV4-11 cells harboring GSPT1 G575N mutant assessed as induction of GSPT1 degradation at 3 uM measured after 3 hrs by immunoblot analysis; assay type: cell-based
[22] = target: T1, Protein cereblon/Eukaryotic peptide chain release factor GTP-binding subunit ERF3A; experiment: Molecular glue activity at CRBN/HiBiT-tagged GSPT1 in human BE2C cells assessed as induction of GSPT1 degradation at 3 uM pretreated with pomalidomide at 25 uM for 1 hr followed by compound treatment and measured after 3 hrs by immunoblot analysis; assay type: cell-based
MV4-11 [23] = experiment: Antiproliferative activity against CRBN depleted human MV4-11 cells assessed as reduction in cell viability measured after 3 days by ATP-dependent luminescence assay; assay type: functional, cell-based; settings: time 3.0 day
[24] = Selectivity index, ratio of EC50 for antiproliferative activity against human BE2C cells to EC50 for antiproliferative activity against human MV4-11 cells; assay type: functional
BE(2)-C [25] = experiment: Antiproliferative activity against human BE2C cells harboring GSPT1 G575N mutant assessed as reduction in cell viability measured after 3 days by ATP-dependent luminescence assay; assay type: functional, cell-based; settings: time 3.0 day
MV4-11 [26] = experiment: Downregulation of GSPT2 protein abundance in human MV4-11 cells at 3 uM measured after 3 hrs by proteomics analysis; assay type: functional, cell-based
[27] = target: T1, Protein cereblon/Eukaryotic peptide chain release factor GTP-binding subunit ERF3A; experiment: Molecular glue activity at CRBN/HiBiT-tagged GSPT1 in human MOLT-4 cells assessed as induction of GSPT1 degradation at 3 uM pretreated with carfilzomib at 500 nM for 1 hr followed by compound treatment and measured after 3 hrs by immunoblot analysis; assay type: cell-based
[28] = target: T1, Protein cereblon/Eukaryotic peptide chain release factor GTP-binding subunit ERF3A; experiment: Molecular glue activity at CRBN/HiBiT-tagged GSPT1 in human BE2C cells assessed as induction of GSPT1 degradation at 3 uM pretreated with carfilzomib at 500 nM for 1 hr followed by compound treatment and measured after 3 hrs by immunoblot analysis; assay type: cell-based
[29] = target: T1, Protein cereblon/Eukaryotic peptide chain release factor GTP-binding subunit ERF3A; experiment: Molecular glue activity at CRBN/GSPT1 in CRBN depleted human MOLT-4 cells assessed as induction of GSPT1 degradation at 3 uM measured after 3 hrs by immunoblot analysis; assay type: cell-based
MOLT-4 [30] = experiment: Antiproliferative activity against human MOLT-4 cells harboring GSPT1 G575N mutant assessed as reduction in cell viability measured after 3 days by ATP-dependent luminescence assay; assay type: functional, cell-based; settings: time 3.0 day
MV4-11 [31] = experiment: Downregulation of GSPT1 protein abundance in human MV4-11 cells at 3 uM measured after 3 hrs by proteomics analysis; assay type: functional, cell-based
[32] = target: T1, Protein cereblon/Eukaryotic peptide chain release factor GTP-binding subunit ERF3A; experiment: Molecular glue activity at CRBN/GSPT1 in CRBN depleted human MV4-11 cells assessed as induction of GSPT1 degradation at 3 uM measured after 3 hrs by immunoblot analysis; assay type: cell-based
MOLT-4 [33] = experiment: Antiproliferative activity against CRBN depleted human MOLT-4 cells assessed as reduction in cell viability measured after 3 days by ATP-dependent luminescence assay; assay type: functional, cell-based; settings: time 3.0 day
[34] = Selectivity index, ratio of EC50 for antiproliferative activity against human BE2C cells to EC50 for antiproliferative activity against human MOLT-4 cells; assay type: functional

Row | SMILES | DC50 [1] | EC50 (BE(2)-C [2]) | EC50 (MOLT-4 [3]) | DC50 [4] | DC50 [5] | EC50 (MV4-11 [6]) | Activity [7] | Activity [8] | Activity [9] | Activity (MV4-11 [12]) | Activity [13] | Activity [14] | Activity (BE(2)-C [15]) | Activity [17] | Activity [18] | Activity [19] | Activity [20] | Activity [21] | Activity [22] | Activity (MV4-11 [23]) | other results
1 | Cc1ccc(NC(=O)NCc2ccc3c(c2)CN(C2CCC(=O)NC2=O)C3=O)cc1Cl (stereo unspecified) | < 1 nM | < 5 nM | < 1 nM | < 1 nM | < 1 nM | < 1 nM |  |  |  |  |  |  |  |  |  |  |  |  |  |  | 
2 | Cc1cccc(Cl)c1OCCNS(=O)(=O)Nc1ccc2c(c1)CN(C1CCC(=O)NC1=O)C2=O (stereo unspecified) | 8000 nM | 12000 nM | 180 nM | 280 nM | 280 nM | 190 nM | inactive | inactive | inactive | inactive | inactive | inactive | inactive | inactive | inactive | inactive | inactive | inactive | inactive | inactive | Activity [10]: inactive; Activity [11]: Active; Activity [16]: Active; Ratio EC50 [24]: ~100; Activity (BE(2)-C [25]): inactive; Activity (MV4-11 [26]): Active; Activity [27]: inactive; Activity [28]: inactive; Activity [29]: inactive; Activity (MOLT-4 [30]): inactive; Activity (MV4-11 [31]): Active; Activity [32]: inactive; Activity (MOLT-4 [33]): inactive; Ratio EC50 [34]: ~100
3 | CCC(C)(CCNS(=O)(=O)Nc1ccc2c(c1)CN(C1CCC(=O)NC1=O)C2=O)c1ccccc1OC (stereo unspecified) | 19000 nM | 42000 nM | 420 nM | 700 nM | 700 nM | 410 nM | inactive | inactive | inactive | inactive | inactive | inactive | inactive | inactive | inactive | inactive | inactive | inactive | inactive | inactive | Ratio EC50 [24]: ~100; Activity (BE(2)-C [25]): inactive; Activity (MV4-11 [26]): Active; Activity [27]: inactive; Activity [28]: inactive; Activity [29]: inactive; Activity (MOLT-4 [30]): inactive; Activity (MV4-11 [31]): Active; Activity [32]: inactive; Activity (MOLT-4 [33]): inactive; Ratio EC50 [34]: ~100

Source: ChEMBL document CHEMBL5550120, “SuFEx-based chemical diversification for the systematic discovery of CRBN molecular glues” (Bioorg Med Chem, 2024)
